Test results: PubChem BioAssay AID2060898 (Molecular Pharmacology Branch, DTP, NCI, 2025)
pIC50: −log10 of the molar value.

System: 616215-338-R-J1-PDC complex spheroid viability
Assay: Anticancer human tumor 616215-338-R-J1-PDC patient-derived colon adenocarcinoma cell line growth inhibition [RAS]
Settings: for pIC50: curve of first compound; for viability, T/C: stronger effect = lower value
How it was run: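 Tumour cells grown as complex spheroids with HUVEC endothelial cells and mesenchymal stem cells, treated with RAS pathway inhibitor combinations. Each agent spans half-log steps from near clinical Cmax, or 10 microM where Cmax is unknown.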

[1] = second compound 0.000949 µM, first compound 0.0316 µM
[2] = second compound 0.000949 µM, first compound 0.1 µM
[3] = second compound 0.000949 µM, first compound 0.316 µM
[4] = second compound 0.000949 µM, first compound 1 µM
[5] = second compound 0.003 µM, first compound 0.0316 µM
[6] = second compound 0.003 µM, first compound 0.1 µM
[7] = second compound 0.003 µM, first compound 0.316 µM
[8] = second compound 0.003 µM, first compound 1 µM
[9] = second compound 0.00949 µM, first compound 0.0316 µM
[10] = second compound 0.00949 µM, first compound 0.1 µM
[11] = second compound 0.00949 µM, first compound 0.316 µM
[12] = second compound 0.00949 µM, first compound 1 µM
[13] = second compound 0.03 µM, first compound 0.0316 µM
[14] = second compound 0.03 µM, first compound 0.1 µM
[15] = second compound 0.03 µM, first compound 0.316 µM
[16] = second compound 0.03 µM, first compound 1 µM
[17] = second compound 0.0949 µM, first compound 0.0316 µM
[18] = second compound 0.0949 µM, first compound 0.1 µM
[19] = second compound 0.0949 µM, first compound 0.316 µM
[20] = second compound 0.0949 µM, first compound 1 µM
[21] = second compound 0.3 µM, first compound 0.0316 µM
[22] = second compound 0.3 µM, first compound 0.1 µM
[23] = second compound 0.3 µM, first compound 0.316 µM
[24] = second compound 0.3 µM, first compound 1 µM
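Further: spheroids exposed to agents for seven days before viability readout.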
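Wherever viability, T/C is given: 100% = DMSO vehicle control viability.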

## CC(Nc1ccc2c(c1)OCCn1cc(N3C(=O)OCC3C(F)F)nc1-2)C(N)=O (centres undefined) + CCn1c(-c2cccnc2C(C)OC)c2c3cc(ccc31)N1CCOC(CC(NC(=O)C(C(C)C)N(C)C(=O)C3(F)CCN(C(=O)C#CC(C)(C)N(C)C)CC3)C(=O)N3CCCC(N3)C(=O)OCC(C)(C)C2)C1
Second compound 0.000949 µM
  pIC50: < 5.00
Second compound 0.003 µM
  pIC50: < 5.00
Second compound 0.00949 µM
  pIC50: < 5.00
Second compound 0.03 µM
  pIC50: < 5.00
Second compound 0.0949 µM
  pIC50: < 5.00
Second compound 0.3 µM
  pIC50: 5.02
[1]
  viability, T/C: 106%
[2]
  viability, T/C: 112%
[3]
  viability, T/C: 109%
[4]
  viability, T/C: 101%
Second compound 0.000949 µM, first compound 3.16 µM
  viability, T/C: 93.2%
Second compound 0.000949 µM, first compound 10 µM
  viability, T/C: 91.9%
[5]
  viability, T/C: 107%
[6]
  viability, T/C: 116%
[7]
  viability, T/C: 103%
[8]
  viability, T/C: 102%
Second compound 0.003 µM, first compound 3.16 µM
  viability, T/C: 99.7%
Second compound 0.003 µM, first compound 10 µM
  viability, T/C: 84.2%
[9]
  viability, T/C: 97.5%
[10]
  viability, T/C: 116%
[11]
  viability, T/C: 109%
[12]
  viability, T/C: 114%
Second compound 0.00949 µM, first compound 3.16 µM
  viability, T/C: 91.5%
Second compound 0.00949 µM, first compound 10 µM
  viability, T/C: 78.7%
[13]
  viability, T/C: 95.4%
[14]
  viability, T/C: 109%
[15]
  viability, T/C: 98.9%
[16]
  viability, T/C: 108%
Second compound 0.03 µM, first compound 3.16 µM
  viability, T/C: 96.4%
Second compound 0.03 µM, first compound 10 µM
  viability, T/C: 78.3%
[17]
  viability, T/C: 123%
[18]
  viability, T/C: 106%
[19]
  viability, T/C: 103%
[20]
  viability, T/C: 92%
Second compound 0.0949 µM, first compound 3.16 µM
  viability, T/C: 106%
Second compound 0.0949 µM, first compound 10 µM
  viability, T/C: 90%
[21]
  viability, T/C: 102%
[22]
  viability, T/C: 87.6%
[23]
  viability, T/C: 94.5%
[24]
  viability, T/C: 68.1%
Second compound 0.3 µM, first compound 3.16 µM
  viability, T/C: 103%
Second compound 0.3 µM, first compound 10 µM
  viability, T/C: 48.7%

## O=C(c1ccc(F)c(F)c1Nc1ccc(I)cc1F)N1CC(O)([C@@H]2CCCCN2)C1 + CCn1c(-c2cccnc2C(C)OC)c2c3cc(ccc31)N1CCOC(CC(NC(=O)C(C(C)C)N(C)C(=O)C3(F)CCN(C(=O)C#CC(C)(C)N(C)C)CC3)C(=O)N3CCCC(N3)C(=O)OCC(C)(C)C2)C1
Second compound 0.000949 µM
  pIC50: 7.19
Second compound 0.003 µM
  pIC50: 7.27
Second compound 0.00949 µM
  pIC50: 7.24
Second compound 0.03 µM
  pIC50: 7.27
Second compound 0.0949 µM
  pIC50: 7.32
Second compound 0.3 µM
  pIC50: 7.83
Second compound 0.000949 µM, first compound 0.00316 µM
  viability, T/C: 108%
Second compound 0.000949 µM, first compound 0.01 µM
  viability, T/C: 99.2%
[1]
  viability, T/C: 70.6%
[2]
  viability, T/C: 34.7%
[3]
  viability, T/C: 21.4%
[4]
  viability, T/C: 4.49%
Second compound 0.003 µM, first compound 0.00316 µM
  viability, T/C: 112%
Second compound 0.003 µM, first compound 0.01 µM
  viability, T/C: 109%
[5]
  viability, T/C: 63.3%
[6]
  viability, T/C: 30.5%
[7]
  viability, T/C: 18%
[8]
  viability, T/C: 2.97%
Second compound 0.00949 µM, first compound 0.00316 µM
  viability, T/C: 105%
Second compound 0.00949 µM, first compound 0.01 µM
  viability, T/C: 109%
[9]
  viability, T/C: 61.5%
[10]
  viability, T/C: 34.8%
[11]
  viability, T/C: 22.2%
[12]
  viability, T/C: 3.61%
Second compound 0.03 µM, first compound 0.00316 µM
  viability, T/C: 125%
Second compound 0.03 µM, first compound 0.01 µM
  viability, T/C: 93.9%
[13]
  viability, T/C: 61.8%
[14]
  viability, T/C: 34.7%
[15]
  viability, T/C: 16.9%
[16]
  viability, T/C: 2.6%
Second compound 0.0949 µM, first compound 0.00316 µM
  viability, T/C: 101%
Second compound 0.0949 µM, first compound 0.01 µM
  viability, T/C: 87.9%
[17]
  viability, T/C: 59.2%
[18]
  viability, T/C: 31.2%
[19]
  viability, T/C: 13.3%
[20]
  viability, T/C: 2.27%
Second compound 0.3 µM, first compound 0.00316 µM
  viability, T/C: 85.8%
Second compound 0.3 µM, first compound 0.01 µM
  viability, T/C: 58.6%
[21]
  viability, T/C: 32.8%
[22]
  viability, T/C: 20.4%
[23]
  viability, T/C: 5.09%
[24]
  viability, T/C: 1.18%
